From PMC6332026, “Synthesis and Pharmacochemistry of New Pleiotropic Pyrrolyl Derivatives” (Molecules, 2015)
Marks after values point to notes of the source that are not given here.

Key:
[1] = Interaction with the stable free radical DPPH (reducing activity); conditions: DPPH 50 μM
Experimental: 2,2-Diphenyl-1-picrylhydrazyl (DPPH) is a lipophilic, free, stable radical, which absorbs at 517 nm (violet color). Upon reduction, decolorization is observed that is stoichiometric to the number of received electrons and is representative of the antioxidant ability of compounds. […] This interaction, which indicates their radical scavenging ability in an iron-free system, was measured at 100 and 1000 μM after 20 and 60 min, whereas the final concentration of DPPH was stable at 50 μΜ.
[…] The absorbance was measured at 517 nm after 20 and 60 min at room temperature.

[2] = tested on: carrageenan-induced rat paw edema; assay: Inhibition of rat paw edema induced by carrageenan; format: in vivo, Fischer 344 rats; conditions: 0.01 mmol/kg body weight, intraperitoneally, 3.5 h; for inhibition in vivo at 10 µmol/kg: Rattus norvegicus, ip, read-out: CPE % inhibition of rat paw edema induced by carrageenan
Experimental: The pyrrolyl derivatives, as well as their precursor chalcones were tested in vivo for the inhibition of rat paw edema induced by carrageenan. […] […]. For Compounds 2i, 2iii, 2iv and 2v, we determined their ED50 values. […]. The finding supports the primary idea of this design.
Edema was induced in the right hind paw of Fischer 344 rats (150–200 g). In the study, both males and females were included, with the exemption of pregnant females. The animals, which have been bred in our laboratory, were housed under standard conditions and received a diet of commercial food pellets and water ad libitum during maintenance. One hour before the onset of the experiment, food and water were removed. The tested compounds (dose 0.01 mmol/kg body weight) were diluted in water with a few drops of Tween 80, and they were administered intraperitoneally simultaneously with the intradermal injection of 0.1 mL 2% of carrageenan in water. The animals were euthanatized 3.5 h after the carrageenan administration. The difference between the weight of injected and uninjected paws was calculated for each animal and was compared to control animals, which were treated with water. Indomethacin was used as a reference compound in 0.01 mmol/kg. The results were expressed as the percent inhibition of the edema (CPE %).

interleukin-6 (IL-6) = target: T1, interleukin-6 (IL-6) (Mus musculus, UniProt P08505); assay: Inhibition of interleukin-6 (immunometric double antibody sandwich EIA); format: biochemical; conditions: compound 10 μM; IL-6 1500 pg/mL
T1 construct: purchased Cayman Item No. 583371
T1 sequence (P08505 25-211): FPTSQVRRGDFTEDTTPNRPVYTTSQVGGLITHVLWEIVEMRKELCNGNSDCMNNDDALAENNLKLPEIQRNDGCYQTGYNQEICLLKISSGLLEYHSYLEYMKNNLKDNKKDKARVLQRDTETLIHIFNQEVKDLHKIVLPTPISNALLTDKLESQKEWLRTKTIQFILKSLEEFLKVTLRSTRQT
Experimental: The assay used for the inhibition of IL-6 is based on an immunometric double antibody method (sandwich technique). […] Both compounds gave satisfactory biological responses, both in high and in low concentrations of IL-6 (Table 8).
The method was based on an immunometric double antibody sandwich technique. Each well of the microwell plate was coated with a specific for mouse IL-6 rat monoclonal antibody. Tested compounds at 10 μΜ and standards were incubated in the wells, and after rinsing, a second monoclonal antibody was added, which was conjugated with biotin and detected the captured IL-6. The recognition of double antibody sandwiches was done with HRP-conjugated streptavidin. The concentration of IL-6 was determined by measuring the enzymatic activity of HRP using the chromogenic substrate TMB (3,3′,5,5′-tetramethylbenzidine). The absorbance of the reaction product was measured at 450 nm, and the intensity of the color was directly proportional to the amount of bound HRP-streptavidin conjugate, which was proportional to the concentration of IL-6.

Structure (SMILES): O=C(C=Cc1cccc(Oc2ccccc2)c1)c1cccs1 [Compound 1i, 3-(3-Phenoxyphenyl)-1-(thien-2-yl)prop-2-en-1-one]
- melting point: 48 to 50 °C
- RA % (interaction with DPPH) ([1]; 100 μM compound, 20 min): 43%
- RA % (interaction with DPPH) ([1]; 100 μM compound, 60 min): 2%
- RA % (interaction with DPPH) ([1]; 1000 μM compound, 20 min): 5%
- inhibition in vivo at 10 µmol/kg [2]: 41%

Structure (SMILES): CN(C)c1ccc(C=CC=CC(=O)c2ccccc2)cc1 [Compound 1ii, 5-[4-(Dimethylamino)phenyl]-1-phenylpenta-2,4-dien-1-one]
- RA % (interaction with DPPH) ([1]; 100 μM compound, 20 min): 31%
- RA % (interaction with DPPH) ([1]; 100 μM compound, 60 min): 13%
- RA % (interaction with DPPH) ([1]; 1000 μM compound, 20 min): 38%
- RA % (interaction with DPPH) ([1]; 1000 μM compound, 60 min): 42%
- inhibition in vivo at 10 µmol/kg [2]: 69%

Structure (SMILES): O=C(C=Cc1ccc(OCc2ccc(Br)cc2)cc1)c1cccs1 [Compound 1iii, 3-{4-[(4-Bromobenzyl)oxy]phenyl}-1-(thien-2-yl)prop-2-en-1-one]
- melting point: 141 to 143 °C
- inhibition in vivo at 10 µmol/kg [2]: 86%

Structure (SMILES): O=C(C=Cc1cccc2ccccc12)c1ccccc1 [Compound 1iv, 3-(Naphth-1-yl)-1-phenylprop-2-en-1-one]
- inhibition in vivo at 10 µmol/kg [2]: 40%

Structure (SMILES): O=C(C=Cc1cccc2ccccc12)c1ccc(Cl)cc1 [Compound 1v, 3-(Naphth-1-yl)-1-(4-chloro)phenylprop-2-en-1-one]
- CPE % inhibition of rat paw edema induced by carrageenan [2]: 44 ^d %

Structure (SMILES): O=C(C=Cc1ccc2[nH]ccc2c1)c1ccccc1 [Compound 1vi, 3-(1H-Indol-5-yl)-1-phenylprop-2-en-1-one]
- inhibition in vivo at 10 µmol/kg [2]: 42%

Structure (SMILES): COc1ccc2c(c1)c(CC(=O)O)c(C)n2C(=O)c1ccc(Cl)cc1 [Indomethacin, reference compound]
- inhibition at 10 µM (interleukin-6 (IL-6)): 100%
- inhibition in vivo at 10 µmol/kg [2]: 53%

Structure (SMILES): CC(Cc1ccc(O)c(O)c1)C(C)Cc1ccc(O)c(O)c1 (stereo not drawn) [NDGA, nordihydroguaiaretic acid, reference compound]
- RA % (interaction with DPPH) ([1]; 100 μM compound, 20 min): 81%
- RA % (interaction with DPPH) ([1]; 100 μM compound, 60 min): 83%
- RA % (interaction with DPPH) ([1]; 1000 μM compound, 20 min): 96%
- RA % (interaction with DPPH) ([1]; 1000 μM compound, 60 min): 96%
